The values that follow come from US6686363B2, “Cyclopropyl containing oxazolidinone antibiotics and derivatives thereof” (Kyorin Pharmaceutical Co., Ltd., priority 2001, dated 2004).

What is called MIC is the smallest concentration in the dilution series that meets the test's criterion for growth inhibition. High values mean a need for much substance, low ones inhibition by little substance.

Structures are written as SMILES. Values after ≈ are worked out from the molar mass of the structure shown.

What all share (assay type): cell-based
The subject of assay [1] is Chlamydia pneumoniae ATCCVR-1360. Briefly: MIC, chlamydial inclusion assay in infected HeLa 229 cells. Particulars: ATCCVR1360; Chlamydia pneumoniae ATCCVR-1360 in HeLa 229 cells; 72 hours, lowest concentration with no inclusion. Here is the method:
C. pneumoniae was tested using minimum essential medium supplemented with 10% heat-inactivated fetal bovine serum, 2 mM L-glutamine, […] cycloheximide and non essential amino acid. HeLa 229 cells were inoculated with 10^4 inclusion-forming units of C. pneumoniae strain per mL. Infected cells were incubated with test compounds in complete medium at 35C in an atmosphere of 5% CO2 for 72 hours. […] The MIC was defined as the lowest concentration at which no inclusion was observed.

The subject of assay [2] is Streptococcus pneumoniae IID553. Briefly: MIC, agar dilution method on Mueller-Hinton agar with 5% defibrinated horse blood. Particulars: 5% horse blood, 5% CO2, 35C, 24 hours. How it is done:
(§1) The following in vitro results were obtained based on an agar dilution method except for C. pneumoniae. The activity is presented as the minimum inhibitory concentration (MIC) S. aureus and M. catarrhalis were tested on Mueller-Hinton agar, using an approximate inoculum of 1×10^4 cfu/spot an incubation temperature of 35C for 24 hours. The MIC was defined as the lowest concentration at which no visible bacterial growth was observed.
(§2) Streptococci and enterococci were tested on Mueller-Hinton agar supplemented with 5% defibrinated horse blood, using an approximate inoculum of 1×10^4 cfu/spot an incubation temperature of 35C in an atmosphere of 5% CO2 for 24 hours. The MIC was defined as the lowest concentration at which no visible bacterial growth was observed.
Background: Agar dilution tests growth on a series of plates holding different concentrations.

The test system of assay [3] is Streptococcus pyogenes IID692. The assay is described as above. Particulars: 5% horse blood, 5% CO2, 35C, 24 hours. Here is the method:
as §1, §2

The subject of assay [4] is Enterococcus faecium VRQR (vancomycin resistant, quinolone resistant). The description is as above. Particulars: 5% horse blood, 5% CO2, 35C, 24 hours. How it is done: as §1, §2
Assay [5] concerns Streptococcus pneumoniae PRQR (penicillin resistant, quinolone resistant). Described as above. Particulars: 5% horse blood, 5% CO2, 35C, 24 hours. How it is done:
as §1, §2

Assay [6] relates to Moraxella catarrhalis ATCC25238. Nature of the assay: MIC, agar dilution method on Mueller-Hinton agar. Particulars: 35C, 24 hours. Here is the method: as §1
The test system of assay [7] is Staphylococcus aureus Smith. Nature of the assay: MIC, agar dilution method on Mueller-Hinton agar. Particulars: 35C, 24 hours. How it is done:
as §1

The subject of assay [8] is Staphylococcus aureus CR (chloramphenicol resistant). Briefly: MIC, agar dilution method on Mueller-Hinton agar. Particulars: 35C, 24 hours. How it is done:
as §1

For assay [9], the system named is Staphylococcus aureus MR (methicillin resistant). Briefly: MIC, agar dilution method on Mueller-Hinton agar. Particulars: 35C, 24 hours. How it is done: as §1

As to `CC(=O)NC[C@H]1CN(c2ccc(C3(C#N)CC3)c(F)c2)C(=O)O1` [example 7, N-[5(S)-3-[4-(1-Cyanocyclopropan-1-yl)-3-fluorophenyl]-2-oxooxazolidin-5-ylmethyl]acetamide], the minimum inhibitory concentration (MIC) in assay [1] was found to be 0.5 µg/mL (≈ 1.58 µM); in assay [2] it was 1 µg/mL (≈ 3.15 µM); in assay [3], 0.5 µg/mL (≈ 1.58 µM); in assay [4], 0.5 µg/mL (≈ 1.58 µM); in [5], 1 µg/mL (≈ 3.15 µM); in assay [6], 4 µg/mL (≈ 12.6 µM). The MIC in assay [7] stood at 0.5 µg/mL (≈ 1.58 µM); in assay [8], 4 µg/mL (≈ 12.6 µM); in [9] it was 0.5 µg/mL (≈ 1.58 µM).

In the case of `CC(=S)NC[C@H]1CN(c2ccc(C3(C#N)CC3)c(F)c2)C(=O)O1` [example 8, N-[5(S)-3-[4-(1-Cyanocyclopropan-1-yl)-3-fluorophenyl]-2-oxooxazolidin-5-ylmethyl]thioacetamide], the MIC in assay [1] came out at 0.25 µg/mL (≈ 0.75 µM); in [2] it was 0.25 µg/mL (≈ 0.75 µM); in assay [3], 0.125 µg/mL (≈ 0.375 µM); in [4], 0.25 µg/mL (≈ 0.75 µM); in [5], 0.25 µg/mL (≈ 0.75 µM); in assay [6], 0.5 µg/mL (≈ 1.5 µM). In addition, the minimum inhibitory concentration (MIC) in assay [7] was determined as 0.125 µg/mL (≈ 0.375 µM); in [8], 0.5 µg/mL (≈ 1.5 µM); in assay [9] it was 0.125 µg/mL (≈ 0.375 µM).

With `CC(=O)NC[C@H]1CN(c2ccc(N3CCOCC3)c(F)c2)C(=O)O1` [Linezolid, reference compound], the MIC was determined as 8 µg/mL (≈ 23.7 µM) in assay [1]; 2 µg/mL (≈ 5.93 µM) in [2]; 1 µg/mL (≈ 2.96 µM) in assay [3]; 2 µg/mL (≈ 5.93 µM) in [4]; 1 µg/mL (≈ 2.96 µM) in assay [5]; 4 µg/mL (≈ 11.9 µM) in [6]. The MIC amounted to 1 µg/mL (≈ 2.96 µM) in [7], 16 µg/mL (≈ 47.4 µM) in assay [8] and 1 µg/mL (≈ 2.96 µM) in [9].

For the molecule `N#CC1(c2ccc(N3C[C@H](CNc4ccon4)OC3=O)cc2F)CC1` [example 18, 5(S)-3-[4-(1-Cyanocyclopropan-1-yl)-3-fluorophenyl]-5-[N-(1,2-isoxadiazolyl-3-yl)amino]methyloxazolidin-2-one], the MIC is 1 µg/mL (≈ 2.92 µM) in [2]; 1 µg/mL (≈ 2.92 µM) in assay [3]; 1 µg/mL (≈ 2.92 µM) in assay [4]; 1 µg/mL (≈ 2.92 µM) in [5]; 8 µg/mL (≈ 23.4 µM) in assay [6]; 0.5 µg/mL (≈ 1.46 µM) in assay [7]. In addition, the MIC is 16 µg/mL (≈ 46.7 µM) in [8] and 0.5 µg/mL (≈ 1.46 µM) in [9].

Turning to `COC(=S)NC[C@H]1CN(c2ccc(C3(C#N)CC3)c(F)c2)C(=O)O1` [example 32, O-Methyl N-[5(S)-3-[4-(1-Cyanocyclopropan-1-yl)-3-fluorophenyl]-2-oxooxazolidin-5-ylmethyl]thiocarbonate], the MIC in assay [1] came out at 4 µg/mL (≈ 11.4 µM); in [2], 0.25 µg/mL (≈ 0.716 µM); in assay [3], 0.125 µg/mL (≈ 0.358 µM); in assay [4] it was 0.25 µg/mL (≈ 0.716 µM); in assay [5], 0.125 µg/mL (≈ 0.358 µM); in assay [6], 0.5 µg/mL (≈ 1.43 µM). Also, the values for the MIC in assay [7], in assay [8] and in [9] were 0.125 µg/mL (≈ 0.358 µM), 2 µg/mL (≈ 5.72 µM) and 0.125 µg/mL (≈ 0.358 µM), respectively.
